The record followed here is US20240002344A1, “COMPOUNDS, COMPOSITIONS AND METHODS FOR HISTONE LYSINE DEMETHYLASE INHIBITION” (FibroGen, Inc., priority 2020, published 2024).

By pIC50 is commonly meant the IC50 on a negative log10 scale, so that one unit is a factor of ten.

Assay [1] concerns the target T1, recombinant human KDM5B (Homo sapiens, UniProt Q9UGL1).
T1 sequence (Q9UGL1 374-755 limits assumed): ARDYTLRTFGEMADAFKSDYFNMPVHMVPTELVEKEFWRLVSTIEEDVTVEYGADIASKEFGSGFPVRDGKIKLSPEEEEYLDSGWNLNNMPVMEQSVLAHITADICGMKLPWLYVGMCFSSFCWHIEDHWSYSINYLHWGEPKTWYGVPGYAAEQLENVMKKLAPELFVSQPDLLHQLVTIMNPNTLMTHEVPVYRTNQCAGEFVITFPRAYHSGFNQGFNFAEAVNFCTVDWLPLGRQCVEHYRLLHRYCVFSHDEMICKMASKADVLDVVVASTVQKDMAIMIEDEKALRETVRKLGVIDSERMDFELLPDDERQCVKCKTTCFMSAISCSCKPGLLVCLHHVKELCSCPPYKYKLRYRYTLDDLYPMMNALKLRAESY
Nature of the assay: 14CO2 capture enzymatic assay (decarboxylation of [1-14C] αKG), KDM5B. The note with it: 10 μM [1-14C] αKG, 90 μM non-labeled αKG, 50 μM peptide substrate, 37° C., 1 hour, final 1% DMSO. The format is biochemical. How it is done:
(§1) Enzymatic activity was determined based on the capture of ^14CO2 released by the decarboxylation of [1-^14C] αKG (Zhang et al., Anal. Biochem., 1998, vol. 271, pp. 137-142). [1-^14C]alphaketoglutarate (αKG) was from Perkin-Elmer, H3K4me3 and H3K9me3 peptides were from Mimotopes. All other reagents were from Sigma. Reaction mixtures included the following components: Fe(SO4), [1-^14C] αKG, non-labeled αKG, ascorbate, peptide-substrate (H3K4me3: H-ARTK(me3)QTARKSTGGKAPRKQLA-OH. H3K9me3: H-ARTKQTARK(me3)STGGKAPRKQLA-OH), NaCl, Tween-20 and catalase in 25 mM HEPES buffer, pH 7.4. The enzymatic reactions were initiated by addition of recombinant human KDM5B or KDM4A enzyme (truncated enzyme produced in house by method and using sequence disclosed in Ng et al, Nature 448:87-91, 2007). The reactions were performed in 96-well microtiter plates (20 μL total assay volume) (Greiner #650201). ^14CO2 was captured on a glass fiber filter paper (Cat. No. IH-201-A, Inotech Biosystems International) soaked with saturated Ba(OH)2 that was laid on top of the 96-well plate. A microtiter plate sealer film (Thermal Seal cat #T7961100) was applied to the filter paper. The plate and filter paper were sandwiched between two custom made aluminum plates (Advanced Component Manufacturing, Burlingame, CA) and transferred to a 37° C. oven and allowed to incubate for 1 hour. After incubation, the filter paper was dried in a 103° C. oven for 40-60 minutes. To determine percent turnover, aliquots of the reaction mixture were spotted onto the filter paper and the filter paper was dried again. The dry filter paper was exposed to a storage phosphor screen for 24-72 hours and the images recorded using a Typhoon FLA 7000 Imager (Amersham Biosciences, Piscataway, NJ). Integrated spot intensities corresponding to control reactions lacking the enzyme were subtracted from integration results for enzyme containing reactions and data were converted to enzyme dependent percent ^14CO2 release. All enzymatic reactions were run in duplicates.
(§2) For IC50 determination, a 3-fold dilution series of compound was prepared and added to the reaction mixture (final 1% DMSO, v/v) prior to enzyme addition. The final reagent concentrations were: 10 μM Fe(SO4), 10 μM [1-^14C] αKG, 90 μM non-labeled αKG, 2 mM ascorbate, 50 μM peptide substrate, 75 mM NaCl, 0.01% Tween-20 and ˜2 units/μL catalase. IC50s were determined by non-linear fitting using Grafit version 7.0.

The target in assay [2] is T2, recombinant human KDM4A (Homo sapiens, UniProt O75164).
T2 construct: made in house
T2 sequence (O75164 1-359 limits assumed): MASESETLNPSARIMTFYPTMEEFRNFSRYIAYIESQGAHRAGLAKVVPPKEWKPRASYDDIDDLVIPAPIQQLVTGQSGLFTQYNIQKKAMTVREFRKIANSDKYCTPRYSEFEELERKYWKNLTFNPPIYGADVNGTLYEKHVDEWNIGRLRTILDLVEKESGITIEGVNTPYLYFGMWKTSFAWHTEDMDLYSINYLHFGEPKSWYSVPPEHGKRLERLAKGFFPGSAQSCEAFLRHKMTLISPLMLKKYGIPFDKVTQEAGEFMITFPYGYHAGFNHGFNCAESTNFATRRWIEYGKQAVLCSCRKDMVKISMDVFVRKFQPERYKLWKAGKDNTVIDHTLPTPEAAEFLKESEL
Nature of the assay: 14CO2 capture enzymatic assay (decarboxylation of [1-14C] αKG), KDM4A. As to conditions: 10 μM [1-14C] αKG, 90 μM non-labeled αKG, 50 μM peptide substrate, 37° C., 1 hour, final 1% DMSO. Type of assay: biochemical. Here is the method:
as §1, §2

pIC50: −log10 of the molar value.

With `Cc1cc(C)c(Cc2cc(C#N)c(O)c(C(=O)CCC(=O)O)n2)c(C)c1` [Example 124, 4-[4-Cyano-3-hydroxy-6-(2,4,6-trimethyl-benzyl)-pyridin-2-yl]-4-oxo-butyric acid], the pIC50 in assay [1] was 6.80; in assay [2] it was < 4.40.
For `N#Cc1cc(-c2ccc(Cl)c3ccccc23)nc(C(=O)CCC(=O)O)c1O` [Example 110, 4-[6-(4-Chloro-naphthalen-1-yl)-4-cyano-3-hydroxy-pyridin-2-yl]-4-oxo-butyric acid], in that order: 6.57 and < 4.40.
`N#Cc1cc(Cc2cccc(Cl)c2)nc(C(=O)CCC(=O)O)c1O` [Example 18, 4-[6-(3-Chloro-benzyl)-4-cyano-3-hydroxy-pyridin-2-yl]-4-oxo-butyric acid]: the pIC50 in assay [1] is 7.00; in assay [2], < 4.40.
In the case of `N#Cc1cc(-c2ccncc2)nc(C(=O)CCC(=O)O)c1O` [Example 12, 4-(4-Cyano-5-hydroxy-[2,4′]bipyridinyl-6-yl)-4-oxo-butyric acid], the pIC50 is 6.89 in assay [1] and 4.80 in assay [2].
Turning to `N#Cc1cc(Cc2c(Cl)ccc(Cl)c2Cl)nc(C(=O)CCC(=O)O)c1O` [Example 156, 4-[4-Cyano-3-hydroxy-6-(2,3,6-trichloro-benzyl)-pyridin-2-yl]-4-oxo-butyric acid], the results for the pIC50 in assay [1] and in assay [2] were 7.15 and 4.96, respectively.
In the case of `N#Cc1cc(C2CCCCC2)nc(C(=O)CCC(=O)O)c1O` [Example 25, 4-(4-Cyano-6-cyclohexyl-3-hydroxy-pyridin-2-yl)-4-oxo-butyric acid], the values for the pIC50 in assay [1] and in assay [2] were 6.48 and < 4.40, respectively.
`COc1cccc(Cl)c1Cc1cc(C#N)c(O)c(C(=O)CCC(=O)O)n1` [Example 125, 4-[6-(2-Chloro-6-methoxy-benzyl)-4-cyano-3-hydroxy-pyridin-2-yl]-4-oxo-butyric acid]: the pIC50 was 7.10 in assay [1] and 4.89 in assay [2].
`N#Cc1cc(NC(=O)c2ccccc2)nc(C(=O)CCC(=O)O)c1O` [Example 158, 4-(6-Benzoylamino-4-cyano-3-hydroxy-pyridin-2-yl)-4-oxo-butyric acid]: the pIC50 in assay [1] was 7.10; in assay [2], < 4.40.
On to `N#Cc1cc(-c2ccccn2)nc(C(=O)CCC(=O)O)c1O` [Example 11, 4-(4-Cyano-5-hydroxy-[2,2′]bipyridinyl-6-yl)-4-oxo-butyric acid], for which the pIC50 in assay [1] is 6.23; in assay [2], < 4.40.
With `Cc1ccc(-c2cc(C#N)c(O)c(C(=O)CCC(=O)O)n2)c(C)c1` [Example 93, 4-[4-Cyano-6-(2,4-dimethyl-phenyl)-3-hydroxy-pyridin-2-yl]-4-oxo-butyric acid], the pIC50 in assay [1] was 6.48; in assay [2] it was < 4.40.
Regarding `N#Cc1cc(NC(=O)c2c(Cl)cccc2Cl)nc(C(=O)CCC(=O)O)c1O` [Example 128, 4-[4-Cyano-6-(2,6-dichloro-benzoylamino)-3-hydroxy-pyridin-2-yl]-4-oxo-butyric acid], the negative-log IC50 (pIC50) was 6.42 in assay [1] and < 4.40 in assay [2].
For the compound `N#Cc1cc(Cc2ccc(Cl)cc2)nc(C(=O)CCC(=O)O)c1O` [Example 17, 4-[6-(4-Chloro-benzyl)-4-cyano-3-hydroxy-pyridin-2-yl]-4-oxo-butyric acid], the pIC50 was 6.72 in assay [1] and < 4.40 in assay [2].
In the case of `Cc1cccc(C)c1Cc1cc(C(=O)CCC(=O)O)c(O)c(C#N)n1` [Example 133, 4-[2-Cyano-6-(2,6-dimethyl-benzyl)-3-hydroxy-pyridin-4-yl]-4-oxo-butyric acid], the pIC50 was 5.85 in assay [1] and < 4.40 in assay [2].
Turning to `N#Cc1cc(Cc2cc(Cl)cc(Cl)c2)nc(C(=O)CCC(=O)O)c1O` [Example 31, 4-[4-Cyano-6-(3,5-dichloro-benzyl)-3-hydroxy-pyridin-2-yl]-4-oxo-butyric acid], the pIC50 in assay [1] was 6.64; in assay [2], < 4.40.
Consider `N#Cc1cc(-c2cccc3ncccc23)nc(C(=O)CCC(=O)O)c1O` [Example 112, 4-(4-Cyano-3-hydroxy-6-quinolin-5-yl-pyridin-2-yl)-4-oxo-butyric acid], for which the values for the negative logarithm of the IC50 (pIC50) in assay [1] and in assay [2] were 6.41 and < 4.40, respectively.
Take `N#Cc1nc(Cc2ccccc2)cc(C(=O)CCC(=O)O)c1O` [Example 160, 4-(6-Benzyl-2-cyano-3-hydroxy-pyridin-4-yl)-4-oxo-butyric acid]: the results for the pIC50 in assay [1] and in assay [2] were 5.70 and < 4.40, respectively.
For `Cc1cccc(C)c1Cc1cc(C#N)c(O)c(C(=O)CCC(=O)O)n1` [Example 54, 4-[4-Cyano-6-(2,6-dimethyl-benzyl)-3-hydroxy-pyridin-2-yl]-4-oxo-butyric acid], the pIC50 in assay [1] was 6.64; in assay [2], 5.31.
For `CN(C(=O)c1ccccc1)c1cc(C#N)c(O)c(C(=O)CCC(=O)O)n1` [Example 159, 4-[6-(Benzoyl-N-methyl-amino)-4-cyano-3-hydroxy-pyridin-2-yl]-4-oxo-butyric acid], in that order: 6.00 and < 4.40.
For the compound `Cc1cc(C#N)c(O)c(C(=O)CCC(=O)O)n1` [Example 6, 4-(4-Cyano-3-hydroxy-6-methyl-pyridin-2-yl)-4-oxo-butyric acid], the values for the negative logarithm of the IC50 (pIC50) in assay [1] and in assay [2] were 6.55 and < 4.40, respectively.
On the same counts, the results for `Cc1cccc(F)c1-c1cc(C#N)c(O)c(C(=O)CCC(=O)O)n1` [Example 88, 4-[4-Cyano-6-(2-fluoro-6-methyl-phenyl)-3-hydroxy-pyridin-2-yl]-4-oxo-butyric acid] are 6.15 and < 4.40.
Consider `Cc1ccccc1-c1cc(C#N)c(O)c(C(=O)CCC(=O)O)n1` [Example 71, 4-(4-Cyano-3-hydroxy-6-o-tolyl-pyridin-2-yl)-4-oxo-butyric acid], for which the pIC50 is 6.51 in assay [1] and < 4.40 in assay [2].
On to `N#Cc1cc(Cc2c(F)ccc(F)c2F)nc(C(=O)CCC(=O)O)c1O` [Example 57, 4-[4-Cyano-3-hydroxy-6-(2,3,6-trifluoro-benzyl)-pyridin-2-yl]-4-oxo-butyric acid], for which the pIC50 in assay [1] is 6.57; in assay [2], 4.55.
In the case of `Cn1cc(-c2cc(C#N)c(O)c(C(=O)CCC(=O)O)n2)cn1` [Example 16, 4-[4-Cyano-3-hydroxy-6-(1-methyl-1H-pyrazol-4-yl)-pyridin-2-yl]-4-oxo-butyric acid], the negative logarithm of the IC50 (pIC50) is 6.68 in assay [1] and < 4.40 in assay [2].
As for `Cc1ccc(F)cc1-c1cc(C#N)c(O)c(C(=O)CCC(=O)O)n1` [Example 82, 4-[4-Cyano-6-(5-fluoro-2-methyl-phenyl)-3-hydroxy-pyridin-2-yl]-4-oxo-butyric acid], the pIC50 in assay [1] was 6.46; in assay [2], < 4.40.
In the case of `Cc1ccc(-c2cc(C#N)c(O)c(C(=O)CCC(=O)O)n2)c2ccccc12` [Example 113, 4-[4-Cyano-3-hydroxy-6-(4-methyl-naphthalen-1-yl)-pyridin-2-yl]-4-oxo-butyric acid], the pIC50 in assay [1] was 6.64; in assay [2], < 4.40.
As for `N#Cc1cc(CCc2ccccc2)cc(C(=O)CCC(=O)O)c1O` [Example 135, 4-(3-Cyano-2-hydroxy-5-phenethyl-phenyl)-4-oxo-butyric acid], the pIC50 in assay [1] is 6.43; in assay [2], < 4.40.
